# Data published in patent US4373094A, “Anthracycline derivatives” (Sanraku-Ocean Co., Ltd., priority 1980, dated 1983).
# Columns and labels:
# [1] = tested on: mouse leukemia L1210 cells; test: Growth inhibition of cultured mouse leukemia L1210 cells (living cells counted); assay type: cell-based; conditions: for IC50: Mus musculus, L1210, L1210 cells, read-out: 50% Inhibitory concentration, Growth inhibition after 24 hours; for antitumor effect on L1210 leukemia cells: in words
# Description: The L1210 cells were cultivated at 37° C. overnight and transferred to RPMI (Roswell Park Memorial Institute) 1640 medium containing 20% calf serum at their exponential growth phase so as to give a cell concentration of 4×10^4 cells/ml. The compounds of the present invention were added to the medium at a concentration of 0.02-0.5 μg/ml. […]
# (§1) Independently of the above-mentioned experiment, the compounds of the present invention were added to an about 5×10^5 cells/ml L1210 cell suspension in RPMI 1640 medium containing 10% calf serum at a concentration of 0.02-2.5 μg/ml. After 15 minutes, ^14 C-uridine (0.05 μCi/ml) or ^14 C-thymidine (0.05 μCi/ml) was added to the suspension and pulse-labeling was carried out at 37° C. for 60 minutes. The reaction was stopped by addition of a cold 10% trichloroacetic acid solution and an acid-insoluble fraction was precipitated. The precipitate was washed with a cold 5% trichloroacetic acid and the radioactivity was measured.
# L1210 cells [2] = test: Inhibition of RNA synthesis (14C-uridine incorporation) in L1210 cells; assay type: cell-based, mouse; conditions: RPMI 1640 medium containing 10% calf serum, pulse-labeling 37° C. for 60 minutes; for IC50: Mus musculus, L1210, 1 h, read-out: 50% Inhibitory concentration, 14C-Uridine (Inhibition of RNA synthesis)
# Description: as §1
# L1210 cells [3] = test: Inhibition of DNA synthesis (14C-thymidine incorporation) in L1210 cells; assay type: cell-based, mouse; conditions: RPMI 1640 medium containing 10% calf serum, pulse-labeling 37° C. for 60 minutes; for IC50: Mus musculus, 1 h, read-out: 50% Inhibitory concentration, 14C-Thymidine (Inhibition of DNA synthesis)
# Description: as §1
# Solubility in solvents = assay type: physicochemical; conditions: for Solubilities: slightly soluble: slightly soluble solvents; for Solubilities: soluble: soluble solvents
# [4] = RPMI 1640 medium containing 20% calf serum, 37° C., head: after 24 hours (text: 3 days)
SMILES,"IC50 [1, 4]",IC50 (L1210 cells [2]),IC50 (L1210 cells [3]),Solubilities: slightly soluble (Solubility in solvents),Solubilities: soluble (Solubility in solvents),antitumor effect on L1210 leukemia cells [1],"50% Inhibitory concentration, Growth inhibition after 24 hours ([1]; L1210 cells, RPMI 1640 medium containing 20% calf serum, 37° C., head: after 24 hours (text: 3 days))","50% Inhibitory concentration, 14C-Uridine (Inhibition of RNA synthesis) (L1210 cells [2])","50% Inhibitory concentration, 14C-Thymidine (Inhibition of DNA synthesis) (L1210 cells [3])"
"CCC1(O)CC(OC2CC(N(C)C)C(OC3CC(O)C(OC4CCC(=O)C(C)O4)C(C)O3)C(C)O2)c2c(cc3c(c2O)C(=O)c2c(O)cc(O)cc2C3=O)C1C(=O)OC (stereo not shown) [2-hydroxy-aclacinomycin A, reference compound]",0.15 µg/mL,0.14 µg/mL,0.9 µg/mL,,,,,,
CCC1(O)CC(OC2CC(N(C)C)C(OC3CC(O)C(OC4CCC(O)C(C)O4)C(C)O3)C(C)O2)c2c(cc3c(c2O)C(=O)c2c(O)cc(O)cc2C3=O)C1C(=O)OC (stereo not shown) [2-hydroxy-aclacinomycin M],0.08 µg/mL,0.1 µg/mL,1.2 µg/mL,"slightly soluble in water, ether and n-hexane","soluble in acidic water, methanol, ethanol, n-butanol, acetone, ethyl acetate, chloroform, benzene, toluene, dimethylsulfoxide and methyl cellosolve",have an antitumor effect on L1210 leukemia cells,,,
CCC1(O)CC(OC2CC(N(C)C)C(OC3CC(O)C(OC4CCC(O)C(C)O4)C(C)O3)C(C)O2)c2c(cc3c(c2O)C(=O)c2c(O)cc(O)cc2C3=O)C1C(=O)OC (stereo not shown) [2-hydroxy-aclacinomycin N],,,,"slightly soluble in water, ether and n-hexane","soluble in acidic water, methanol, ethanol, n-butanol, acetone, ethyl acetate, chloroform, benzene, toluene, dimethylsulfoxide and methyl cellosolve",have an antitumor effect on L1210 leukemia cells,0.095 µg/mL,0.18 µg/mL,1.2 µg/mL
CCC1(O)CC(OC2CC(N(C)C)C(OC3CC(O)C(O)C(C)O3)C(C)O2)c2c(cc3c(c2O)C(=O)c2c(O)cc(O)cc2C3=O)C1C(=O)OC (stereo not shown) [2-hydroxy-aclacinomycin S],0.7 µg/mL,1.3 µg/mL,,"slightly soluble in water, ether and n-hexane","soluble in acidic water, methanol, ethanol, n-butanol, acetone, ethyl acetate, chloroform, benzene, toluene, dimethylsulfoxide and methyl cellosolve",have an antitumor effect on L1210 leukemia cells,,,
CCC1(O)CC(OC2CC(N(C)C)C(O)C(C)O2)c2c(cc3c(c2O)C(=O)c2c(O)cc(O)cc2C3=O)C1C(=O)OC (stereo not shown) [2-hydroxy-aclacinomycin T],0.46 µg/mL,1 µg/mL,,"slightly soluble in water, ether and n-hexane","soluble in acidic water, methanol, ethanol, n-butanol, acetone, ethyl acetate, chloroform, benzene, toluene, dimethylsulfoxide and methyl cellosolve",have an antitumor effect on L1210 leukemia cells,,,
